Results as given in ChEMBL document CHEMBL4017461, “Investigation of the inhibitory mechanism of apomorphine against MDM2-p53 interaction” (Bioorg Med Chem Lett, 2017).
Calls of active or inactive are those of the source. The calls are words filed in the database; no cut-off is given here.

Columns and labels:
[1] = target: T1, E3 ubiquitin-protein ligase Mdm2 (Homo sapiens, UniProt Q00987); assay: Inhibition of biotin-labelled p53 binding to MDM2 (25 to 109 residues) (unknown origin) by surface plasmon resonance method
[2] = target: T1, E3 ubiquitin-protein ligase Mdm2; assay: Inhibition of biotin-labelled P4 peptide binding to MDM2 (25 to 109 residues) (unknown origin) by surface plasmon resonance method
Target sequence in this assay (Q00987 whole entry, the tested form may be a part): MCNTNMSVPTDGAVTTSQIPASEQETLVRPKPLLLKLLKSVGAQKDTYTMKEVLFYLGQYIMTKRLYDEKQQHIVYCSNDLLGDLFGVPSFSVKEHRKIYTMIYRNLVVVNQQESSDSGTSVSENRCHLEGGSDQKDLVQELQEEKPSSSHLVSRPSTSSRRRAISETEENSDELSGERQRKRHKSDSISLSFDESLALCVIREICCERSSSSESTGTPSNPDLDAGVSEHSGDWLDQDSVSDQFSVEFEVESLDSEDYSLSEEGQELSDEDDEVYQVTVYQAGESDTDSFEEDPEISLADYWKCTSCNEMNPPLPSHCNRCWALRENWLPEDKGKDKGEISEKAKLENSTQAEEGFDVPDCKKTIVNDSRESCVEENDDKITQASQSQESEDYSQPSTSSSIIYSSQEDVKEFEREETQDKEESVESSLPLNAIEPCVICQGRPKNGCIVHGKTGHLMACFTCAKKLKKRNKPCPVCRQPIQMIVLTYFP

[3] = Inhibition of biotin-labelled P4 peptide binding to MDM2 Cys(Me)77 mutant (unknown origin) by surface plasmon resonance method; parameters: species or system Homo sapiens
[4] = Inhibition of biotin-labelled P4 peptide binding to MDM2 Ser77 mutant (unknown origin) by surface plasmon resonance method; parameters: species or system Homo sapiens
[5] = Drug level in 1:1 PBS/CH3CN mixture treated with R-(-)-apomorphine at 10 mM measured after 24 hrs by HPLC method
Homo sapiens = species on record: Homo sapiens; assay: Binding affinity to MDM2 Cys(Me)77 mutant (unknown origin) assessed as adduct formation at 10 uM after 10 mins by MALDI-TOF-MS analysis
[6] = target: T1, E3 ubiquitin-protein ligase Mdm2; assay: Binding affinity to MDM2 (25 to 109 residues) (unknown origin) assessed as adduct formation at 10 uM after 10 mins by MALDI-TOF MS analysis
Target sequence in this assay (Q00987 whole entry, looked up, the tested form may be a part): as the sequence (Q00987 whole entry, the tested form may be a part) above

[7] = target: T1, E3 ubiquitin-protein ligase Mdm2; assay: Inhibition of biotin-labelled L-p53 binding to L-MDM2 (25 to 109 residues) (unknown origin) by FAM labeled P4 peptide based fluorescence polarization assay
Target sequence in this assay (Q00987 whole entry, the tested form may be a part): as above

[8] = target: T1, E3 ubiquitin-protein ligase Mdm2; assay: Inhibition of biotin-labelled D-p53 binding to D-MDM2 (25 to 109 residues) (unknown origin) by FAM labeled P4 peptide based fluorescence polarization assay
Target sequence in this assay (Q00987 whole entry, looked up, the tested form may be a part): as the sequence (Q00987 whole entry, the tested form may be a part) above

[9] = Inhibition of biotin-labelled p53 binding to MDM2 Ser77 mutant (unknown origin) by surface plasmon resonance method; parameters: species or system Homo sapiens

| Structure (SMILES) | inhibition [1] | IC50 [2] [µM] | IC50 [3] [µM] | IC50 [4] [µM] | IC50 [7] [µM] | IC50 [1] [µM] | further results |
| --- | --- | --- | --- | --- | --- | --- | --- |
| CN1CCc2cccc3c4c(cc1c23)C=CC(=O)C4=O | Active | 1.7 | > 30 | > 30 |  |  | Drug metabolism [5]: Metabolite detected; Activity (Homo sapiens): Active; Activity [6]: inactive |
| CN1CCc2cccc3c2[C@@H]1Cc1ccc(O)c(O)c1-3 [(S)APOMORPHINE] |  |  |  |  | 0.175 |  |  |
| CN1CCc2cccc3c2[C@H]1Cc1ccc(O)c(O)c1-3 [APOMORPHINE] | inactive | > 30 | > 30 | > 30 | 0.215 |  | IC50 [8]: 0.195 µM |
| O=C1C=CC(=O)C=C1 [BENZOQUINONE] |  |  |  |  |  | 13.9 | IC50 [9]: > 100 µM |
| Oc1ccccc1O [CATECHOL] |  |  |  |  |  | > 100 |  |
